Reference: patent publication US20260345517A1, “DOSAGE REGIMENS FOR TREATING STARGARDT DISEASE” (Alkeus Pharmaceuticals, Inc., priority 2024, published 2026)

Legend:
Type in all cases: in vivo, human
[1] = Open-label multiple dose pharmacokinetic study in healthy volunteers (percentage of deuterated vitamin A in plasma, LC/MS); conditions: for % D3 Vitamin A: average over 24 hours, from AUC
Protocol: Study Design: This was an open-label, non-randomized, multiple dose study in healthy volunteers aged 21 to 70 years of age (inclusion criteria). Subjects who met all entrance criteria at screening were invited to receive the study medication. There were six treatment arms: 2 mg/day, 3.5 mg/day, 5 mg/day, 7 mg/day, 10 mg/day and 14 mg/day gildeuretinol acetate. For the four lower dose groups, the dose regimen was one capsule per day, orally, to be taken at home, preferably in the evening unless a different time was preferred by the subject. For the two highest doses, the dose regimen was two capsules per day, one in the morning and one in the evening, although subjects with a preference to take both capsules at once were offered to do so. After taking the 1st dose at the study site, subjects were invited to return two and four weeks after starting the treatment.
The clinical staff made periodic calls to monitor adverse events and ensure subject compliance. In addition, a text message was sent daily to remind subjects to take their medication. Subjects were instructed to avoid foods that contain large amounts of vitamin A (such as liver-based products), including supplements containing vitamin A, and to report their vitamin A intake by answering a daily text message diary. Fruits and vegetables were permitted without restriction.
Deuterated retinol (gildeuretinol) (“D3”) and non-deuterated retinol (“Do”) and other vitamin A metabolites were measured to calculate the percentage of deuterated vitamin A in plasma. For all treatment groups, plasma samples were collected at baseline, 14±1 days (“2 weeks”) and 28±1 days (“4 weeks”) after initiation of treatment. Blood samples were usually collected following at least 10 hours of fasting (including last gildeuretinol acetate intake), preferably in the morning. For the 7 mg/day and the 14 mg/day groups only, after the first and last dose, blood samples were collected every 4 hours for 24 hours. A liquid chromatography/mass spectrometry assay was used to measure the metabolite levels.
Table 2 provides % D3 Retinol (gildeuretinol, i.e. the percentage of deuterated retinol (gildeuretinol) over total retinol (as deuterated+non-deuterated) in plasma measured 12-24 hours following gildeuretinol acetate intake.
Pharmacokinetic Results (integrated levels over 24 hours post dosing): total vitamin A in plasma, both deuterated (gildeuretinol) and non-deuterated (retinol), was measured every 4 hours following administration of 7 mg or 14 mg at the first dose, and following administration of the 28th dose (4 weeks of daily treatment). The area under the curve (AUC) was calculated and the % deuterated % D3 of total vitamin A (as retinol and gildeuretinol) was computed as an average over 24 hours.

[2] = TEASE-1: plasma gildeuretinol (replacement of plasma vitamin A); conditions: for percentage of gildeuretinol over total vitamin A (retinol + gildeuretinol): 8-week pharmacokinetic analysis, plasma
Protocol: The Tolerability and Effects of gildeuretinol acetate in Stargardt Disease (Clinical trial group 1 also known as TEASE-1) was a 24-month, multicenter, double-masked, placebo-controlled trial designed to evaluate the efficacy and safety of daily oral gildeuretinol acetate in slowing the growth of atrophic retinal lesions in Stargardt disease patients. The trial was conducted at multiple sites in the United States (NCT02402660).
Patients 12 years or older, clinically diagnosed with Stargardt disease, with at least one ABCA4 mutation, at least one eye presenting with well-demarcated areas of reduced fundus autofluorescence, and with any visual acuity, were eligible.
Patients were randomized to gildeuretinol acetate 14 mg capsules, gildeuretinol acetate 24 mg capsules, or placebo capsules, to be taken once daily for one year. After one year, 50% of randomly selected patients receiving placebo were crossed over in a 1:1 ratio to gildeuretinol acetate 14 mg capsules or gildeuretinol acetate 24 mg capsules for a second year.
Gildeuretinol acetate and placebo capsules were identical appearing capsules. Patients were advised to avoid vitamin A-containing supplements and liver-based products. Fruits and vegetables contain beta-carotene, not preformed vitamin A, and could be consumed without limitation. Trial visits occurred at 8 weeks and 6, 12, 18, and 24 months following screening and randomization.

[3] = tested on: asymptomatic Stargardt disease patients; experiment: TEASE-3: photoreceptor loss (ellipsoid zone band loss) by optical coherence tomography; conditions: 14 mg daily
Protocol: FIG. 5 is a graph showing retinal photoreceptor loss over time in three asymptomatic Stargardt disease patients taking gildeuretinol acetate 14 mg daily. Lines are piecewise linear regressions with a knot time of 6 months and show the mean area of retinal photoreceptor loss of both eyes. Each symbol represents the area of photoreceptor loss for calculated for one eye. To measure photoreceptor loss, the ellipsoid zone layer was evaluated on b-scans acquired on Heidelberg engineering optical coherence tomography (Heidelberg, Germany).
The tolerability and effects of gildeuretinol acetate in Stargardt Disease (Clinical trial group 3 also known as TEASE-3) study was an open-label, multicenter, case control study designed to evaluate the efficacy and safety of gildeuretinol acetate on the progression of Stargardt disease in asymptomatic individuals. The trial was conducted at multiple sites in the United States.
Patients received gildeuretinol acetate 14 mg capsules, to be taken orally once daily. Trial visits occurred every 6 months approximately following screening and treatment start visits.
Disease progression was monitored by best-corrected visual acuity (BCVA) reported in number of Early Treatment Diabetic Retinopathy Study (ETDRS) letters, fundus autofluorescence (FAF) imaging, loss of photoreceptors (as measured by the ellipsoid zone band loss) by optical coherence tomography (OCT) according to literature (1-3) and retinal sensitivity by microperimetry.
Measurements from the left and right eye for each patient were averaged for each visit to produce a single statistical unit for both eyes(4). For segmented linear regressions, knot times were selected so that three visits were included in the first segment.

## CC(=O)OC/C=C(C)/C=C/C=C(C)/C=C/C1=C(C)CCCC1(C)C [gildeuretinol acetate, C20-D3-retinol acetate]
[1]; 7 mg/day, 1st dose
  % D3 Vitamin A: 38%
[1]; 7 mg/day, 28th dose
  % D3 Vitamin A: 75%
[1]; 14 mg once daily, after 4 weeks
  average percentage of deuterated plasma vitamin A of total vitamin A (retinol + gildeuretinol): 85%
[1]; 14 mg/day, 1st dose
  % D3 Vitamin A: 52%
[1]; 14 mg/day, 28th dose
  % D3 Vitamin A: 85%
[2]; 14 mg and 24 mg once daily, about 24 months
  replacement of vitamin A with gildeuretinol: over 80%
[2]; 14 mg and 24 mg, throughout treatment
  replacement of plasma vitamin A sustained throughout the treatment period: greater than 80%
[2]; 14 mg
  percentage of gildeuretinol over total vitamin A (retinol + gildeuretinol): 87%
[2]; 24 mg
  percentage of gildeuretinol over total vitamin A (retinol + gildeuretinol): 92%
[2]; 14 to 24 mg daily, within a matter of weeks
  replacement of serum vitamin A with gildeuretinol: more than 80%
[2]; after six months
  patients with over 80% of plasma vitamin A replaced: 39 out of 40
[2]; gildeuretinol acetate vs placebo groups
  total plasma vitamin A and retinoic acid (combined vitamin A and gildeuretinol-derived forms) versus placebo: the same
[3]
  average area of photoreceptor loss: 0.36±0.32 mm^2
  average area of photoreceptor loss, share of the foveal area: 20%
[3]; after first six months
  photoreceptor loss, following years of treatment: trended toward an improvement
[3]; first six months, average for two patients
  photoreceptor loss rate: approximately 0.18 mm^2/year
[3]; full treatment period
  photoreceptor loss, third patient: no photoreceptors were lost
